From patent publication US7906624B2, “Binding peptidomimetics and uses of the same” (The Trustees of the University of Pennsylvania, priority 2004, dated 2011)

Legend:
[1] = ELISA on biotin-coated plate, bound protein detected with anti-streptavidin antibody-HRP; assay type: binding; details: 0-1.1 μg/well on biotin-coated plate
Description: (§1) FIG. 4, panels A and B show data from enzyme-linked immunosorbent assay (ELISA) analysis of recombinant proteins for biotin and Her2-Fc binding ability. Panel A: Streptavidin or ASA was immobilized on biotin-coated plate. Bound protein was detected using an anti-streptavidin antibody-HRP. Panel B: After immobilization of Streptavidin or ASA on biotin-coated plate, Her2-human Fc fusion was added to each plate and bound fusion protein was detected using anti-Her2 antibody and anti-mouse IgG-HRP. The amounts of Streptavidin or ASA fusion protein used in this experiment were: well 1: 0; 2: 0.11 ng; 3: 1.1 ng; 4: 11 ng; 5: 110 ng; 6: 1100 ng.
(§2) The binding of ASA to Biotin and Her2 was determined by a modified ELISA assay. ELISA was performed at room temperature (RT) or 4° C. Purified streptavidin or ASA (0-1.1 μg/well) was immobilized on the biotin-coated ELISA plate (Pierce) for 1 hr at 4° C. in PBS. […] The A450 nm value of the plates was determined using an ELISA reader. Bound streptavidin was detected by the same method using an anti-streptavidin-HRP in PBS (1; 500 dilution; 50 μL/well).
(§3) The ASA fusion protein was tested to determine if it would bind to biotin as well as Her2. […] Bound Her2-Fc was detected by the mouse anti-Her2 antibody (4D5) and the HRP-conjugated anti-mouse IgG antibody.

[2] = target: T1, Her2-human Fc fusion protein (Homo sapiens, UniProt P04626); experiment: ELISA for Her2-Fc binding of protein immobilized on biotin-coated plate; details: 0-1.1 μg/well immobilized on biotin-coated plate; Her2-Fc 50 ng/well
T1 construct: Her2-human Fc fusion protein that was composed of the ectodomain of Her2 and the Fc of human IgG; purchased Xcyte Therapeutic, Seattle, Wash
Description: as §1, §2, §3

[3] = in vivo; cited from earlier work
[4] = test system: T6-17 cells (Her2 transformed cells); experiment: MTT cell proliferation assay, T6-17 cells; assay type: cell-based
Description: (§4) FIG. 5, panels A and B show inhibition of cell proliferation by ASA. Effects of ASA treatment, or treatments with streptavidin and the peptide AHNP, on the proliferation of T6-17 (Her2 transformed cells, Panel A) or NR6 (control cells, Panel B) were shown; Cell proliferation was measured by the standard MTT assay performed on poly-HEMA plates (for T6-17) or regular tissue culture plates (for NR6).
(§5) T6-17 and NR6 cells were grown in DMEM medium supplemented with 10% heat inactivated fetal calf serum, L-glutamine (2 mM), penicillin (100 U/ml) and streptomycin (100 μg/ml) at 37° C. in a humidified 5% CO2 atmosphere.
(§6) The MTT assay has been used modified method for measuring cell growth. T6-17 cells or NR6 cells were seeded in poly 2-hydroxyethyl methacrylate coated 96 well plates (50 μl/well, 800 cells/well or 1200 cells/well). Then the Streptavidin or ASA protein or the AHNP peptide were (50 μl/well, 0.69 μM or 6.9 μM) and incubate at 37° C. in a humidified 5% CO2 atmosphere for 48 hr. A total of 25 μl of MTT solution (5 mg/ml in PBS) was added to each well, and after 2 hr of incubation at 37° C., 100 μl of the extraction-buffer (20% w/v SDS, 50% N,N-dimethyl formamide, pH 4.7) were added. After an overnight incubation at 37° C., the optical density at […] was measured using an ELISA reader.

[5] = test system: NR6 cells (control cells); experiment: MTT cell proliferation assay, NR6 control cells; assay type: cell-based; details: NR6 control cell line
Description: as §4, §5, §6

[6] = test system: T6-17 cells injected subcutaneously into nude mice; experiment: T6-17 tumor growth in nude mice; assay type: in vivo; details: for reduction of tumor size: day 14
Description: 1 million of T6-17 cells were injected subcutaneously into nude mice to induce the tumor growth. Panel A. Treatment of ASA started from day 0. Panel B. Treatment started on day 2 after tumor were palpable. NCR homozygous athymic (nude) mice (six to eight weeks-old) were purchased from the National Cancer Institute. To induce tumor, 10^6 transformed T6-17 cells were suspended in 100 μl of PBS and injected subcutaneously into the flank of each animal. Animals were maintained in accordance with guidelines of the Institutional Animal Care and Use Committee (IACUC) of the University of […]. Tumor volume was calculated by the formula: π*length*width*Height/6. T6-17 cells were transformed by the over-expression of human Her2/neu […]. […] In one experiment, animals were treated with either streptavidin or ASA (11.25 mg/kg/week). Treatment stared from day 0 and was provided to animals by three subcutaneous injections each week. […] Treatment was also provided to mice by a different administration route in a second experiment, in which intraperitoneal treatment started day 2 after palpable tumor appeared ( 2 cubic mm) (FIG. 6, Panel B). ASA was given at the dose of 15 mg/kg/week, divided into three injections.

Substance	binding to biotin (ELISA) [1]	binding to Her2-Fc fusion (ELISA) [2]	serum half-life [3]	inhibition of cell proliferation ([4]; T6-17 cells, two different concentrations (0.69 μM or 6.9 μM), 48 hr, MTT)	molar concentration of ASA relative to the AHNP peptide necessary to achieve 50% cell growth inhibition in vitro ([4]; in vitro, relative to AHNP peptide)	inhibitory effect on cell proliferation [5]	appearance of palpable tumor prevented until ([6]; 11.25 mg/kg/week, subcutaneous, from day 0) [days]	molar excess of AHNP with comparable activity in reducing tumor growth in vivo ([6]; ASA compared with AHNP) [fold]	reduction of tumor size ([6]; 11.25 mg/kg/week, three subcutaneous injections each week, from day 0) [%]	reduction of tumor size ([6]; intraperitoneal, 15 mg/kg/week in three injections, from day 2 after palpable tumor, vs vehicle control)
streptavidin: Tetrameric biotin-binding protein produced by Streptomyces avidinii; recombinant core used as control [reference compound]	bound to biotin in a dose-dependent manner	didn't bind to the Her2-human Fc fusion protein even at the highest concentration	about 12 hours	–	–	–	–	–	–	–
ASA: Recombinant fusion of AHNP peptide, 11 amino acid linker GGGGSRSNSSS, streptavidin core and C-terminal NSSS linker plus His-tag; forms tetramer	bound to biotin in a dose-dependent manner	able to bind to the Her2-Fc fusion in a dose-dependent manner	–	20-50%	about 10 times	Inhibitory effects were not observed	7	~30	62	about 47.6%
